“And” between values parts separate entries of the source, which are not always exact repeats. Identical values can stand only once. Marks after values point to notes of the source that are not given here.
Key:
[1] = Phase I dose escalation of oral 3-AP: adverse events; type: in vivo
[2] = in vivo, po
[3] = Serum pharmacokinetics of intravenous 3-AP; type: in vivo, human
advanced stage cancers = conditions: cited from earlier work
[4] = system: advanced stage solid cancers; assay: Tumor response to oral 3-AP; type: in vivo, human
[5] = Serum pharmacokinetics and bioavailability of oral 3-AP
[6] = 200 mg, represented grade 4 toxicity
[7] = adverse events attributed to treatment, 20 patients
[8] = Intravenous Route, 100 mg 2-hour infusion, individual patients
[9] = of 20 enrolled patients, all dose levels
[10] = Oral Route, oral dose 50 mg, individual patients
[11] = Oral Route, oral dose 100 mg, individual patients
[12] = Oral Route, oral dose 150 mg, individual patients
[13] = Oral Route, oral dose 200 mg, individual patients

NC(=S)NN=Cc1ncccc1N [3-AP, 3-aminopyridine-2-carboxaldehyde thiosemicarbazone]
(AST/SGOT), Grade 3–4 [1, 6]: 1 (50) ^* No. of Patients (%)
Neutropenia, Grade 3–4 [1, 6]: 1 (50) ^* No. of Patients (%)
Thrombocytopenia, Grade 3–4 [1, 6]: 1 (50) ^* No. of Patients (%)
(AST/SGOT), Grade 3–4 ([1]; All Gr 3–4, all dose levels): 1 (5) No. of Patients (%)
Anorexia, Grade 3–4 ([1]; All Gr 3–4, all dose levels): 1 (5) No. of Patients (%)
Fatigue, Grade 3–4 ([1]; All Gr 3–4, all dose levels): 1 (5) No. of Patients (%)
Hemoglobin (anemia), Grade 3–4 ([1]; All Gr 3–4, all dose levels): 2 (10) No. of Patients (%)
Hypertension, Grade 3–4 ([1]; All Gr 3–4, all dose levels): 1 (5) No. of Patients (%)
Hypoxia, Grade 3–4 ([1]; All Gr 3–4, all dose levels): 2 (10) No. of Patients (%)
Infection, Grade 3–4 ([1]; All Gr 3–4, all dose levels): 1 (5) No. of Patients (%)
Neutropenia, Grade 3–4 ([1]; All Gr 3–4, all dose levels): 4 (20) No. of Patients (%)
Thrombocytopenia, Grade 3–4 ([1]; All Gr 3–4, all dose levels): 1 (5) No. of Patients (%)
(AST/SGOT), all grades [1, 7]: 10%
(AST/SGOT), all grades, No. of Patients [1, 7]: 2
Alkaline phosphatase, all grades [1, 7]: 10%
Alkaline phosphatase, all grades, No. of Patients [1, 7]: 2
Anorexia, all grades [1, 7]: 20%
Anorexia, all grades, No. of Patients [1, 7]: 4
Diarrhea, all grades [1, 7]: 5%
Diarrhea, all grades, No. of Patients [1, 7]: 1
Fatigue, all grades [1, 7]: 25%
Fatigue, all grades, No. of Patients [1, 7]: 5
Headache, all grades [1, 7]: 20%
Headache, all grades, No. of Patients [1, 7]: 4
Hemoglobin (anemia), all grades, No. of Patients [1, 7]: 7
Hemorrhage, all grades, No. of Patients [1, 7]: 1
Hyperglycemia, all grades [1, 7]: 15%
Hyperglycemia, all grades, No. of Patients [1, 7]: 3
Hypertension, all grades [1, 7]: 5/5%
Hypertension, all grades, No. of Patients [1, 7]: 1/1
Neutropenia, all grades, No. of Patients [1, 7]: 11
Thrombocytopenia, all grades, No. of Patients [1, 7]: 6
Thrombosis, all grades, No. of Patients [1, 7]: 0
Vomiting, all grades [1, 7]: 15%
Vomiting, all grades, No. of Patients [1, 7]: 3
hematological and infectious adverse events observed, number ([1]; among the 20 patients enrolled): 27
Hypokalemia, all grades ([1]; human, in vivo): 5%
Hypokalemia, all grades, No. of Patients ([1]; human, in vivo): 1
Hypotension, all grades ([1]; human, in vivo): 5/5%
Hypotension, all grades, No. of Patients ([1]; human, in vivo): 1/1
Hypoxia, all grades ([1]; human, in vivo): 10%
Hypoxia, all grades, No. of Patients ([1]; human, in vivo): 2
Infection, all grades ([1]; human, in vivo): 15%
Infection, all grades, No. of Patients ([1]; human, in vivo): 3
Nausea, all grades ([1]; human, in vivo): 25%
Nausea, all grades, No. of Patients ([1]; human, in vivo): 5
Therapy discontinued for adverse events ([1]; of 20 patients): 40%
Therapy discontinued for adverse events, patients ([1]; of 20 patients, after a median of 1 cycle): 8
DLT Description ([1]; oral 50 mg every 12 Hrs.): grade 3 hypertension
DLT Description ([1]; oral 150 mg every 12 Hrs.): grade 4 febrile neutropenia
DLT Description ([1]; oral 200 mg every 12 Hrs.): grade 3 hypoxia
MTD by the oral route higher than by the intravenous route ([1]; oral vs intravenous route): 33%
maximum tolerated dose (MTD) of oral 3-AP ([1]; per dose, every 12 hours for 5 doses on days 1–3, 8–10, 15–17 of each 28-day cycle): 150 mg
CL/F, Avg. ([2]; human): 0.017 L/h
exposure of orally administered 3-AP versus dose [2]: increased in a dose dependent manner
AUC [3, 8]: 8.8 µM·h and 4.8 µM·h and 12.1 µM·h and 14.1 µM·h and 7.0 µM·h and 16.1 µM·h and 25.6 µM·h and 10.2 µM·h and 14.5 µM·h and 8.3 µM·h and 11.3 µM·h and 7.2 µM·h and 5.7 µM·h and 10.0 µM·h
MRT (mean residence time) [3, 8]: 2.4 h and 2.6 h and 3.0 h and 3.5 h and 2.3 h and 2.7 h and 3.1 h
Cmax ([3]; Intravenous Route, 100 mg 2-hour infusion, serum, individual patients): 2800 nM and 5400 nM and 4700 nM and 6700 nM and 1900 nM and 3700 nM and 2700 nM and 3200 nM and 2900 nM and 2100 nM and 2500 nM
Tmax ([3]; human, serum, iv, 100 mg): 2 h
AUC ([3]; human, serum, iv, 100 mg, AUC, Avg., 100 mg 2-hour infusion, mean): 9.5 µM·h
Cmax ([3]; human, serum, iv, 100 mg, Cmax, Avg., 100 mg 2-hour infusion, mean): 3500 ± 1400 nM
MRT ([3]; human, serum, iv, 100 mg, MRT (mean residence time), 100 mg 2-hour infusion, individual patients): 2.5 h
MRT ([3]; human, serum, iv, 100 mg, MRT, Avg., 100 mg 2-hour infusion, mean): 2.8 h
Cmax ([3]; read-out: Cmax, Avg., Intravenous Route, 100 mg 2-hour infusion, mean): 2800 nM
durable 18-month complete pelvic tumor response rate (advanced stage cancers; phase 1, radiation, cisplatin and three-times weekly intravenous 3-AP 25 mg/m^2, advanced stage cervical cancer, 10 of 10 women): 100%
patients with at least stable disease as a best response (advanced stage cancers; phase I, intravenous 3-AP in combination with gemcitabine, after 4 months of treatment): 42%
stable disease rate (advanced stage cancers; phase II, intravenous 3-AP and gemcitabine, relapsed nonsmall cell lung cancer): 20%
median duration of stable disease response ([4]; in vivo): 2 months
Stable disease as the best response [4, 9]: 25%
Stable disease as the best response, patients [4, 9]: 5
Therapy discontinued for disease progression ([4]; of 20 patients): 50%
progressive disease confirmed while on study, patients ([4]; of 20 patients): 10
Therapy discontinued for disease progression, patients ([4]; of 20 patients, after a median of 2 cycles): 10
longest progression-free interval ([4]; one patient with pancreatic adenocarcinoma): 15 months
clinical benefit rate ([4]; treated population with advanced solid tumors): 25%
AUC [5, 10]: 5.2 µM·h and 1.9 µM·h and 3.5 µM·h and 1.6 µM·h and 1.4 µM·h and 4.1 µM·h
Cmax [5, 10]: 1500 nM and 900 nM and 500 nM and 1100 nM
MRT [5, 10]: 2.6 h and 3.0 h and 3.4 h
Tmax [5, 10]: 3.0 h and 0.8 h and 1.0 h and 1.3 h
AUC [5, 11]: 6.5 µM·h and 2.3 µM·h
Cmax [5, 11]: 2500 nM
MRT [5, 11]: 3.0 h
AUC [5, 12]: 8.0 µM·h and 21.7 µM·h and 4.3 µM·h and 8.5 µM·h
Cmax [5, 12]: 5900 nM and 1600 nM and 10100 nM
MRT [5, 12]: 3.5 h and 1.7 h and 5.4 h and 3.3 h
Tmax [5, 12]: 0.8 h and 6.0 h
AUC [5, 13]: 56.0 µM·h and 19.5 µM·h
Cmax [5, 13]: 800 nM and 4600 nM
MRT [5, 13]: 3.9 h
Tmax [5, 13]: 3.0 h
bioavailability ([5]; human, serum, po): 67 ± 29%
MRT ([5]; human, serum, po, 50 mg, MRT, oral dose 50 mg, individual patients): 4.2 h
MRT ([5]; human, serum, po, 100 mg, MRT, oral dose 100 mg, individual patients): 2.8 h
AUC ([5]; human, serum, po, 150 mg, AUC, Avg., average for patients receiving an oral dose of 150 mg): 10.6 µM·h
Cmax ([5]; human, serum, po, 150 mg, Cmax, Avg., average for patients receiving an oral dose of 150 mg): 5000 nM
MRT ([5]; human, serum, po, 200 mg, MRT, oral dose 200 mg, individual patients): 2.5 h
MRT ([5]; human, serum, po, MRT, Avg., mean across dose levels): 3.2 h
Tmax ([5]; human, serum, po, Tmax, Avg., mean across dose levels): 1.9 h

From PMC3288125 (Cancer Chemotherapy and Pharmacology, 2011)
